# Patent US20110190122A1, “Triazole and Imidazole Compounds, Use Thereof and Agents Containing Them” (BASF SE, priority 2008, published 2011)
# Tests used:
# [1] = tested on: Phakopsora pachyrhizi; test: Curative activity against soybean rust caused by Phakopsora pachyrhizi (Example G1, sprayed two days after incubation); assay type: in vivo; settings: soybean seedlings, 300 ppm aqueous active compound preparation, sprayed to runoff two days after 24 h incubation, assessed after a further 10 days; untreated plants 90% infected
# Description: (§1) The active compounds were prepared separately or together as a stock solution with 25 mg of active compound, which was made up to 10 ml with a mixture of acetone and/or DMSO and the emulsifier Uniperol® EL (wetting agent with emulsifying and dispersant action based on ethoxylated alkylphenols) in the volume ratio solvent/emulsifier of 99 to 1. Subsequently, it was made up to 100 ml with water. This stock solution was diluted with the described solvent/emulsifier/water mixture to the active compound concentration indicated below. Alternatively to this, the active compounds were used as a commercially available ready-to-use solution and diluted with water to the active compound concentration indicated.
# Leaves of soybean seedlings grown in pots were inoculated with a spore suspension of soybean rust (Phakopsora pachyrhizi). The pots were then placed in a chamber of high atmospheric humidity (90 to 95%) and 23 to 27° C. for 24 hours. During this time, the spores germinated and the germ tubes penetrated into the leaf tissue. The infected plants were then cultivated further in a greenhouse at temperatures between 23 and 27° C. and 60 to 80% relative atmospheric humidity. After two days, the plants were sprayed to runoff point with the active compound solution described above at the active compound concentration indicated below. After the spray coating had dried on, the test plants were cultivated in a greenhouse at temperatures between 23 and 27° C. and 60 to 80% relative atmospheric humidity for a further 10 days. The extent of the rust fungus development on the leaves was then determined visually in % infections.
# [2] = tested on: Phakopsora pachyrhizi; test: Curative activity against soybean rust caused by Phakopsora pachyrhizi (Example G2, sprayed directly after 24 h incubation); assay type: in vivo; settings: soybean seedlings, 300 ppm aqueous active compound preparation, sprayed to runoff after 24 h incubation, assessed after a further 14 days; untreated plants 90% infected
# Description: as §1
# Leaves of soybean seedlings grown in pots were inoculated with a spore suspension of soybean rust (Phakopsora pachyrhizi). The pots were then placed in a chamber of high atmospheric humidity (90 to 95%) and 23 to 27° C. for 24 hours. During this time, the spores germinated and the germ tubes penetrated into the leaf tissue. The infected plants were then sprayed to runoff point with the active compound solution described above at the active compound concentration indicated below. […] The extent of the rust fungus development on the leaves was then determined visually in % infections.
smiles,measurement,setting,value
"CC(C)[C@H](O)[C@@H](CCCCOc1ccc(Cl)cc1Cl)n1nc[nH]c1=S (racemic) [I.A3, (RS,SR)-2-[5-(2,4-dichlorophenoxy)-1-(1-hydroxy-2-methylpropyl)pentyl]-2,4-dihydro[1,2,4]triazole-3-thione]","infection (extent of the rust fungus development on the leaves, determined visually)",[1],0%
"CC(C)[C@H](O)[C@@H](CCCCOc1cccc(F)c1F)n1nc[nH]c1=S (racemic) [I.A1, (RS,SR)-2-[5-(2,3-difluorophenoxy)-1-(1-hydroxy-2-methylpropyl)pentyl]-2,4-dihydro[1,2,4]triazole-3-thione]","infection (extent of the rust fungus development on the leaves, determined visually)",[2],0%
"CC(C)[C@H](O)[C@@H](CCCCOc1cccc(Cl)c1Cl)n1nc[nH]c1=S (racemic) [I.A2, (RS,SR)-2-[5-(2,3-dichlorophenoxy)-1-(1-hydroxy-2-methylpropyl)pentyl]-2,4-dihydro[1,2,4]triazole-3-thione]","infection (extent of the rust fungus development on the leaves, determined visually)",[1],0%
"CC(C)[C@H](O)[C@@H](CCCCOc1cc(F)ccc1F)n1nc[nH]c1=S (racemic) [I.A4, (RS,SR)-2-[5-(2,5-difluorophenoxy)-1-(1-hydroxy-2-methylpropyl)pentyl]-2,4-dihydro[1,2,4]triazole-3-thione]","infection (extent of the rust fungus development on the leaves, determined visually)",[1],0%
